Laboratory results published in PMC6199744, “Development of Chemical Proteomics for the Folateome and Analysis of the Kinetoplastid Folateome” (ACS Infectious Diseases, 2018).
Read-outs that look alike come from different tables or passages of the source.

Experiments:
Format in all cases: binding
[1] = biological target: T1, HeLa cell extract proteins (Homo sapiens, UniProt Q5H9R7)
T1 construct: endogenous in cells; host or cells: HeLa cell extract
T1 sequence (Q5H9R7 1-873): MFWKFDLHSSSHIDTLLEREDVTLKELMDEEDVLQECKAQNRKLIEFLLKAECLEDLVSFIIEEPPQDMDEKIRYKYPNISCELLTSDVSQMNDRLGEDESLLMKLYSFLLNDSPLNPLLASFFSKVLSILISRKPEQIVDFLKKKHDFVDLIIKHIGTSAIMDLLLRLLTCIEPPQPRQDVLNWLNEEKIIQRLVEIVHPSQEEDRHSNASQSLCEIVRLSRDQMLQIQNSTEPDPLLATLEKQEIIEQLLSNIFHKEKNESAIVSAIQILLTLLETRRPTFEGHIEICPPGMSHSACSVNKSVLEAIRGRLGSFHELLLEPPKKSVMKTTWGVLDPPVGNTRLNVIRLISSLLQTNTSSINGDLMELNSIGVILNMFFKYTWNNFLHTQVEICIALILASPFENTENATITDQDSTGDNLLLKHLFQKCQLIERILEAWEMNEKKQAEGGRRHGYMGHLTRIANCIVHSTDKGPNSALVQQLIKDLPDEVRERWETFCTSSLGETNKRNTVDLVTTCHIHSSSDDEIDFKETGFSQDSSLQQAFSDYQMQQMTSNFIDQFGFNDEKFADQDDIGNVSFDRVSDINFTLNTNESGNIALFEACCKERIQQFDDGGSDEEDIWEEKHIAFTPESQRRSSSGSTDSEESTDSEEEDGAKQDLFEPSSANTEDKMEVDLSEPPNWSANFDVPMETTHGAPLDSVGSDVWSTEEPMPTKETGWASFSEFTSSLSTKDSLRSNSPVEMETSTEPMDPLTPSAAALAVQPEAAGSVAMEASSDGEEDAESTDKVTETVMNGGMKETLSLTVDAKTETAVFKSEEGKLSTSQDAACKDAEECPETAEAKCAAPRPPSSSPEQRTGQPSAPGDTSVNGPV

[2] = biological target: T2, HeLa cell extract proteins (Homo sapiens, UniProt O95816)
T2 construct: endogenous in cells; host or cells: HeLa cell extract

[3] = biological target: T3, HeLa cell extract proteins (Homo sapiens, UniProt P81605)
T3 construct: endogenous in cells; host or cells: HeLa cell extract
T3 sequence (P81605 20-110): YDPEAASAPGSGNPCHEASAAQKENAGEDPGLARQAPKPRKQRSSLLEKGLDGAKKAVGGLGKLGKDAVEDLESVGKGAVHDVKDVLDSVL

[4] = biological target: T4, HeLa cell extract proteins (Homo sapiens, UniProt Q969U7)
T4 construct: endogenous in cells; host or cells: HeLa cell extract
T4 sequence (Q969U7 1-264): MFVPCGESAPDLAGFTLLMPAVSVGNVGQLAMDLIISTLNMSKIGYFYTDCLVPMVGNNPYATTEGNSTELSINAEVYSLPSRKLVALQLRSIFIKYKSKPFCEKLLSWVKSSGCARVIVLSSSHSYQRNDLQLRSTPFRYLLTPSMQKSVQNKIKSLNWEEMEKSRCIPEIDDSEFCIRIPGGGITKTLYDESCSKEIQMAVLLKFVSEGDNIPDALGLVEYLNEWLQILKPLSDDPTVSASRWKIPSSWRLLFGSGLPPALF

[5] = biological target: T5, HeLa cell extract proteins (Homo sapiens, UniProt O43175)
T5 construct: endogenous in cells; host or cells: HeLa cell extract
T5 sequence (O43175 1-533): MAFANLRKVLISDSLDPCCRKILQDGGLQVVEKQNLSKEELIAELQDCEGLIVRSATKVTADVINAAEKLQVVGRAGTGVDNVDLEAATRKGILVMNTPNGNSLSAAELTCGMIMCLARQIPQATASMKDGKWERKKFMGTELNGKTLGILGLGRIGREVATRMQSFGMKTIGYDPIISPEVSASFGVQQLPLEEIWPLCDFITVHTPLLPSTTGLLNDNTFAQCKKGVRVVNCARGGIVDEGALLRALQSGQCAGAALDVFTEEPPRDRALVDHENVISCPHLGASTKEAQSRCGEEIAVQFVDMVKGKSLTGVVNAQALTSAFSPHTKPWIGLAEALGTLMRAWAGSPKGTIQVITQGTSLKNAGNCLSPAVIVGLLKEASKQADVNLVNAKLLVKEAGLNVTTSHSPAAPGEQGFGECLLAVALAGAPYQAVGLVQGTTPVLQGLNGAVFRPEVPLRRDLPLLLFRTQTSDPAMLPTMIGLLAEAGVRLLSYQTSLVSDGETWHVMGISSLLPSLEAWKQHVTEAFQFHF

[6] = biological target: T6, HeLa cell extract proteins (Homo sapiens, UniProt Q8NCG7)
T6 construct: endogenous in cells; host or cells: HeLa cell extract
T6 sequence (Q8NCG7 1-672): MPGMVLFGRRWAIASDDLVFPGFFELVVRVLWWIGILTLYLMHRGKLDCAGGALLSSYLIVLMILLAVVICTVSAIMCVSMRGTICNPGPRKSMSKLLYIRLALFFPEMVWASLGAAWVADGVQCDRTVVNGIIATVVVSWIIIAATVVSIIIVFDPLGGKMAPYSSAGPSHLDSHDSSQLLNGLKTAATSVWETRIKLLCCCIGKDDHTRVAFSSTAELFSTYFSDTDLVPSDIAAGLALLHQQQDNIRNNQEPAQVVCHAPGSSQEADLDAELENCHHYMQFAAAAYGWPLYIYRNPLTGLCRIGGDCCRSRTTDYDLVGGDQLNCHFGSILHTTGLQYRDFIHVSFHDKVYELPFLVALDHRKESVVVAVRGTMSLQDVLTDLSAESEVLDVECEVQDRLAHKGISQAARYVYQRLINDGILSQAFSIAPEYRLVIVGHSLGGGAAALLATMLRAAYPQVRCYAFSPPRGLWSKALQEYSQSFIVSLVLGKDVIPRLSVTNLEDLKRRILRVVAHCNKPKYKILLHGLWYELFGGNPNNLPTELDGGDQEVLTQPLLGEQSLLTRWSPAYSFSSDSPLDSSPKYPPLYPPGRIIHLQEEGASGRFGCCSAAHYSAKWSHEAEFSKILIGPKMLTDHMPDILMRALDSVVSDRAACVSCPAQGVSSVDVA

T2 sequence (O95816 whole entry): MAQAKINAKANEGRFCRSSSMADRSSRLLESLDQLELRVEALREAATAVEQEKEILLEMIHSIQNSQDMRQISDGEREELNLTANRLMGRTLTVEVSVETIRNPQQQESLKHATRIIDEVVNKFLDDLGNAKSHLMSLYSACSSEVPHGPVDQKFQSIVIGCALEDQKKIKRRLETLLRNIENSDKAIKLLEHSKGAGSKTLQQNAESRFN

Nc1nc2c(c(=O)[nH]1)N(C=O)C(CNc1ccc(C(=O)N[C@@H](CCC(=O)O)C(=O)O)cc1)CN2 (stereo partly drawn) [LEU, leucovorin]
fold changes relative to vehicle control ([1]; HeLa, protein SAPS3): 0.94
fold changes relative to vehicle control ([2]; HeLa, protein BAG2): 0.96
fold changes relative to vehicle control ([3]; protein DCD, HeLa): 0.78
fold changes relative to vehicle control ([4]; HeLa, captured protein PSMG2): 1.05
fold changes relative to vehicle control ([5]; protein PHGDH, HeLa): 0.88
fold changes relative to vehicle control ([6]; HeLa, protein DAGLB): 1.01

NCCCNc1ccc(C(=O)NC(CCC(=O)O)C(=O)O)cc1 (stereo not drawn) [compound 7]
fold changes relative to vehicle control ([1]; HeLa, protein SAPS3): 0.93
fold changes relative to vehicle control ([2]; HeLa, protein BAG2): 0.97
fold changes relative to vehicle control ([3]; protein DCD, HeLa): 1.23
fold changes relative to vehicle control ([4]; HeLa, captured protein PSMG2): 0.98
fold changes relative to vehicle control ([5]; protein PHGDH, HeLa): 1.06
fold changes relative to vehicle control ([6]; HeLa, protein DAGLB): 1.04

CCCCCCOc1cccc(Cc2cnc(N)nc2N)c1 [compound 2]
fold changes relative to vehicle control ([1]; HeLa, protein SAPS3): 1.09
fold changes relative to vehicle control ([2]; captured protein BAG2, HeLa): 1.15
fold changes relative to vehicle control ([3]; protein DCD, HeLa): 1.52
fold changes relative to vehicle control ([4]; protein PSMG2, HeLa): 1.03
fold changes relative to vehicle control ([5]; protein PHGDH, HeLa): 1.25
fold changes relative to vehicle control ([6]; captured protein DAGLB, HeLa): 1.07

CCCCCCOc1ccc(Cc2cnc(N)nc2N)cc1 [compound 1]
fold changes relative to vehicle control ([1]; HeLa, protein SAPS3): 0.96
fold changes relative to vehicle control ([2]; captured protein BAG2, HeLa): 0.9
fold changes relative to vehicle control ([3]; protein DCD, HeLa): 9.15
fold changes relative to vehicle control ([4]; protein PSMG2, HeLa): 1
fold changes relative to vehicle control ([5]; protein PHGDH, HeLa): 0.99
fold changes relative to vehicle control ([6]; captured protein DAGLB, HeLa): 1.02

Nc1nc2cccc(-c3ccccc3)c2n1Cc1ccc(Cl)c(Cl)c1 [compound 3]
fold changes relative to vehicle control ([1]; HeLa, protein SAPS3): 1.11
fold changes relative to vehicle control ([2]; captured protein BAG2, HeLa): 0.88
fold changes relative to vehicle control ([3]; protein DCD, HeLa): 1.26
fold changes relative to vehicle control ([4]; protein PSMG2, HeLa): 0.87
fold changes relative to vehicle control ([5]; protein PHGDH, HeLa): 1.5
fold changes relative to vehicle control ([6]; captured protein DAGLB, HeLa): 0.97

NCCOCCOCC(=O)Nc1nc2ncc(CNc3ccc(C(=O)NC(CCC(=O)O)C(=O)O)cc3)nc2c(=O)[nH]1 (stereo not drawn) [compound 6]
fold changes relative to vehicle control ([1]; HeLa, protein SAPS3): 0.88
fold changes relative to vehicle control ([2]; HeLa, protein BAG2): 0.97
fold changes relative to vehicle control ([3]; protein DCD, HeLa): 0.86
fold changes relative to vehicle control ([4]; HeLa, captured protein PSMG2): 1
fold changes relative to vehicle control ([5]; protein PHGDH, HeLa): 1.06
fold changes relative to vehicle control ([6]; HeLa, protein DAGLB): 1.07

Nc1nc2[nH]cc(CCc3ccc(C(=O)N[C@@H](CCC(=O)O)C(=O)O)cc3)c2c(=O)[nH]1 [PTX, pemetrexed]
fold changes relative to vehicle control [1]: 0.94
fold changes relative to vehicle control [2]: 0.95
fold changes relative to vehicle control [3]: 1.53
fold changes relative to vehicle control [4]: 0.97
fold changes relative to vehicle control [5]: 0.93
fold changes relative to vehicle control [6]: 0.88
